Results: paper PMC2965138, “DEB025 (Alisporivir) Inhibits Hepatitis C Virus Replication by Preventing a Cyclophilin A Induced Cis-Trans Isomerisation in Domain II of NS5A” (PLoS ONE, 2010)
“And” between values parts separate entries of the source, which are not always exact repeats. Equal values may be shown once. Read-outs that look alike come from different tables or passages of the source.

Key:
[1] = test system: CsA^res HCV subgenomic replicon (Con1-GT1b) in Huh 9–13 cells; parameters: method as in PMID 19104013; conditions: cited from earlier work
[2] = test system: mutant GT1b subgenomic luciferase replicons in Huh7-Lunet cells; type: cell-based, Hepatitis C virus genotype 1b; conditions: for sensitivity of the generated mutant replicons compared to WT: site-directed mutant replicons, data not shown; for fold reduction in sensitivity (based on EC50-values) compared to WT replicon: luciferase assay
[3] = test system: DEB025^res HCV subgenomic replicon (Con1-GT1b) in Huh 9–13 cells; parameters: method as in PMID 19104013; conditions: cited from earlier work
Method: (§1) Replicon-containing cells were continuously passaged in these double-selection media. When cultures had adapted to replication in the presence of a particular concentration of DEB025 (i.e. no more massive cell death) the concentration was increased in steps of 0.21 µM (typically every 3 passages).

[4] = test system: HCV; conditions: cited from earlier work; for viral load reduction: genotype 1 null/partial responders, 29 days; for decrease in viral load: phase II
Source text: (§2) Several CsA-analogues, i.e. NIM811 [19], DEB025 and SCY-635 [20], are currently in preclinical and clinical development. […] We reported earlier on the potent in vitro anti-HCV activity of DEB025 [22] and on the particular characteristics of its anti-HCV activity.

[5] = cited from earlier work
Source text: as §2

[6] = test system: calcineurin; conditions: cited from earlier work
Source text: as §2

[7] = test system: recombinant replicon with DEB025^res NS5B gene in Huh7-Lunet cells; type: cell-based, Hepatitis C virus genotype 1b; conditions: entire NS5B gene of DEB025^res replicon in WT background, control NS5B from WT cells
Method: (§3) For comparative reasons also the original unmanipulated vector was included in the analysis. […] Data are mean values ± standard deviations for at least three independent experiments. (C) Replication fitness of the different recombinant replicons. Huh7-Lunet cells were transiently transfected with each of the indicated replicon constructs and replicon RNA replication was quantified by means of a luciferase assay for 4 days post transfection. Data are normalized to the 4 h-value post electroporation to account for differences in electroporation efficiency and is expressed as percentage of the WT-value at 96 h post electroporation. Data are mean values ± standard deviations for at least two independent experiments.
(§4) RNA was isolated from either DEB025^res or WT HCV subgenomic replicon cells using the RNeasy mini kit (Qiagen). First-strand cDNA was synthesized using SuperScript II RT (Invitrogen). The NS5A or NS5B-containing regions were amplified in an AccuPrime Pfx DNA polymerase reaction (Invitrogen) for subsequent cloning into the WT Con1 plasmid. All constructs were sequenced to verify the correct manipulation.
Huh7-Lunet single-cell suspensions were prepared by trypsinization, washed twice with Opti-MEM® I (Invitrogen) and then resuspended at 1×10∧7 cells per ml in Cytomix containing 2 mM ATP and 5 mM glutathione. […]

[8] = test system: JFH1-derived subgenomic replicon (GT2a); conditions: replicon with mutation near NS5A/NS5B cleavage site (position 464); cited from earlier work
[9] = test system: replicons resistant to DAA inhibitors of different classes; conditions: cited from earlier work
[10] = test system: CypA-NS5A interaction
Method: We next studied whether the NS5A mutations, either alone or in combination, have an influence on (i) the binding of NS5A to CypA and (ii) the sensitivity of the CypA-NS5A interaction to DEB025.
Glutathione beads were added to the GST-CypA/NS5A-His mixture for 30 min at 4°C and washed. Bound material was eluted and analyzed by Western blotting using anti-His and anti-CypA antibodies. (C) The percentage of NS5A pulled down in the presence of increasing concentrations of DEB025, relative to the amount of NS5A pulled down in the absence of the drug.
NS5A mutants were created by site-directed mutagenesis.
Pull-down experiments were conducted as described previously [55]. Briefly, GST-CypA (100 ng) was mixed with 10 ng of NS5A-His in a total volume of 200 µl for 3 h at 4°C on a rotating wheel. Glutathione beads (25 µl) were added to the GST-CypA/NS5A-His mixture for 30 min at 4°C and samples were washed 3 times thereafter. […] Bound material was then analyzed by Western blotting using anti-CypA and anti-His antibodies as described previously [9]. […] To calculate the percent of NS5A pulled down relative to the amount of NS5A pulled down in the absence of the drug scans of ECL-developed films were analyzed by Bio-Rad densitometer model 620 and quantified by Bio-Rad Program Manager software (Bio-Rad Laboratories, Inc., Hercules, CA). […]

[11] = test system: recombinant replicon with DEB025^res NS5A sequence in Huh7-Lunet cells
Method: (§5) The antiviral phenotype of this construct was evaluated in comparison with a construct into which the NS5A region derived from WT Huh 9–13 cells (which were cultured in parallel), was swapped.
as §3, §4
(§6) Huh7-Lunet single-cell suspensions were prepared by trypsinization, washed twice with Opti-MEM® I (Invitrogen) and then resuspended at 1×10∧7 cells per ml in Cytomix containing 2 mM ATP and 5 mM glutathione. Ten µg of in vitro transcribed RNA was mixed with 400 µl cell suspension in a cuvette with a gap width of 4 mm (VWR International) and an ECM 830 Electro Square Porator™ (BTX Harvard Apparatus) was used to deliver 5 pulses at 900 V, 99 µsec. Cells were immediately transferred to 20 ml complete DMEM and seeded as required for the assay. Briefly, 100 or 700 µl aliquots of the cell suspension were seeded in a 96- or 24-well plate (Iwaki), respectively, filled with serial dilutions of the antiviral molecule in complete DMEM.

[12] = test system: recombinant replicon with WT NS5A sequence in Huh7-Lunet cells; conditions: read-out: EC50, inhibition of replicon replication, replicon engineered to contain WT NS5A sequence, transient, 72 h, luciferase, mean ± SD
Method: as §5, §3, §4, §6

[13] = test system: CsA^res HCV subgenomic replicon (Con1-GT1b) in Huh 9–13 cells; conditions: read-out: EC50, inhibition of HCV replicon RNA, CsA^res Huh 9-13 culture, 72 h treatment, RT-qPCR, mean ± SD, at least three independent experiments
Method: as §1
(§7) HCV replicon RNA was quantified by means of RT-qPCR and is expressed as the percentage of HCV replicon RNA of the untreated control cells. Data are mean values±standard deviations for at least three independent experiments.
(§8) When cells suffered from compound pressure, G418 pressure was removed till cells recovered. […] Four independent resistance selection experiments were carried out, three with Huh 9–13 replicons and one with Huh 5–2 replicons.
(§9) HCV replication assays were performed and analysed using published procedures.

[14] = test system: DEB025^res HCV subgenomic replicon (Con1-GT1b) in Huh 9–13 cells; conditions: read-out: EC50, inhibition of HCV replicon RNA, DEB025^res Huh 9-13 culture, 72 h treatment, RT-qPCR, mean ± SD, at least three independent experiments
Method: as §1, §7, §8, §9

[15] = test system: WT replicon RNA in Huh7-Lunet cells; conditions: read-out: EC50, inhibition of replicon RNA, Huh7-Lunet stably transfected with WT replicon RNA, RT-qPCR, mean ± SD
Method: (§10) HCV replicon RNA was quantified by means of RT-qPCR and is expressed as the percentage of HCV replicon RNA of the untreated control cells. Data are mean values ± standard deviations for at least three independent experiments.
(§11) One day before lipofection, Huh7-Lunet cured cells were seeded in a 25 cm^2 flasks at a cell density of 5.26×10^5 cells. Just before transfection, the cells were washed once with opti-MEM® I (Invitrogen) and incubated for 4 h at 37°C with transfection medium containing: 26.3 µg of RNA, DMRIE-C Reagent (Invitrogen) and opti-MEM I serum free medium. Four hours post transfection, medium was replaced by culture medium without G418. Depending on the proliferation of the cells, G418 was gradually added to the cultures (to a final concentration of 1 mg/ml) to generate stable cell lines.

[16] = test system: DEB025^res replicon RNA in Huh7-Lunet cells
Method: as §10, §11

[17] = test system: HCV subgenomic replicon (Con1-GT1b) in Huh 9–13 cells
[18] = biological target: T1, CypA (Homo sapiens, UniProt P62937); conditions: cited from earlier work
T1 construct: made in house
T1 sequence (P62937 whole entry): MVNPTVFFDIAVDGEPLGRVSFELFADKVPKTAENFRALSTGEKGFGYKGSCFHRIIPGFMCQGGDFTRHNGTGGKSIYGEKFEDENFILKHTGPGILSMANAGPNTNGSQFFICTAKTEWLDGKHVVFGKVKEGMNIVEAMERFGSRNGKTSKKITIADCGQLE

[19] = test system: WT HCV subgenomic replicon (Con1-GT1b) in Huh 9–13 cells
Source text: Huh7 cells containing subgenomic HCV genotype 1b replicon I377/NS3-3′/wt (Huh 9–13) [47], [48] and I389luc-ubi-neo/NS3-3′/5.1 (Huh 5–2) were used to select for resistance.

C[C@@]1(O)[C@H](O)[C@@H](CO)O[C@H]1n1ccc(N)nc1=O [2′-C-methylcytidine]
antiviral activity against CsA^res replicons compared to WT [1]: retained WT-antiviral activity
sensitivity of the generated mutant replicons compared to WT [2]: retained WT-activity
antiviral activity against DEB025^res replicons compared to WT [3]: retained WT-antiviral activity

[N-]=[N+]=N[C@]1(CO)O[C@@H](n2ccc(N)nc2=O)[C@H](O)[C@@H]1O [4′-azidocytidine]
antiviral activity against CsA^res replicons compared to WT [1]: retained WT-antiviral activity
antiviral activity against DEB025^res replicons compared to WT [3]: retained WT-antiviral activity

COc1ccc2c(O[C@@H]3C[C@H]4C(=O)N[C@]5(C(=O)O)C[C@H]5/C=C\CCCCC[C@H](NC(=O)OC5CCCC5)C(=O)N4C3)cc(-c3csc(NC(C)C)n3)nc2c1 [BILN2061]
antiviral activity against CsA^res replicons compared to WT [1]: retained WT-antiviral activity
antiviral activity against DEB025^res replicons compared to WT [3]: retained WT-antiviral activity

C/C=C/C[C@@H](C)[C@@H](O)[C@H]1C(=O)N[C@@H](CC)C(=O)N(C)[C@H](C)C(=O)N(CC)[C@@H](C(C)C)C(=O)N[C@@H](C(C)C)C(=O)N(C)[C@@H](CC(C)C)C(=O)N[C@@H](C)C(=O)N[C@H](C)C(=O)N(C)[C@@H](CC(C)C)C(=O)N(C)[C@@H](CC(C)C)C(=O)N(C)[C@@H](C(C)C)C(=O)N1C [DEB025, Alisporivir]
viral load reduction ([4]; 400 mg daily (with initial loading dose) combined with pegIFN/RBV): −1.96 log10 IU/ml
viral load reduction ([4]; 800 mg daily combined with pegIFN/RBV): −2.38 log10 IU/ml
mean maximal decrease in HCV viral load ([4]; phase I, HCV/HIV-coinfected patients, monotherapy 1200 mg BID, after 15 days): −3.6 log10 IU/ml
decrease in viral load ([4]; treatment-naïve genotype 1 and 4 patients, therapy based on 1000 mg/day DEB025 (combined with pegIFN-α-2a)): −4.75 log10 IU/ml
decrease in viral load ([4]; treatment-naïve genotype 2 and 3 patients): up to −5.89 log10 IU/ml
adverse finding ([5]; 1000 mg dose, returned to baseline after treatment cessation): isolated and transient hyperbilirubinemia
tolerability ([5]; lower doses regimens): very well tolerated
inhibition of calcineurin [6]: do not inhibit calcineurin
effect of DEB025^res NS5B gene in WT background on antiviral activity [7]: No reduction in antiviral activity
fold change in sensitivity compared to WT [2]: 1.28 fold and 1.93 fold
fold reduction in sensitivity (based on EC50-values) compared to WT replicon ([2]; mutant A241P + R262Q + R318W + D320E): 4.33 fold
fold reduction in sensitivity (based on EC50-values) compared to WT replicon ([2]; mutant NS5A D320E): 3.92 fold and 3.9 fold
fold reduction in sensitivity (based on EC50-values) compared to WT replicon ([2]; mutant NS5A R318W): ~2 fold
effect of NS5B I432V on antiviral activity ([2]; mutant NS5B I432V, luciferase assay (Figure S1)): neither reduced the antiviral activity
fold reduction in sensitivity (based on EC50-values) compared to WT replicon ([2]; mutant R318W + D320E): 3.79 fold
fold reduced sensitivity of resistant JFH1-derived replicon [8]: ~5 fold
activity against replicons resistant to DAA inhibitors compared to WT [9]: retained WT-activity
effect on the CypA-NS5A interaction ([10]; GST-CypA and His-tagged NS5A pull down, increasing drug concentrations): inhibit the CypA-NS5A interaction in a dose-dependent manner
effect on interactions between CypA and WT or mutated NS5A ([10]; WT versus mutated NS5A, pull down): equally disrupted
EC50 ([11]; read-out: EC50, inhibition of replicon replication, replicon engineered to contain DEB025^res NS5A sequence, transient, 72 h, luciferase, mean ± SD, SD): 390 ± 150 nM
fold less active than in replicon with WT NS5A sequence ([11]; replicon with DEB025^res NS5A vs replicon with WT NS5A): 10 fold
EC50 [12]: 40 ± 10 nM
EC50 [13]: 460 ± 260 nM
EC50 [14]: 2050 ± 560 nM
EC50 [15]: 40 ± 10 nM
fold less active than in WT-transfected cell line ([16]; cells stably transfected with RNA from DEB025^res culture vs WT, on average): 10 fold
EC50 ([16]; read-out: EC50, inhibition of replicon RNA, Huh7-Lunet stably transfected with RNA from DEB025^res culture, RT-qPCR, mean ± SD, SD): 440 ± 70 nM
passages of selective pressure needed to select resistant replicons ([17]; Huh 9-13, stepwise increasing drug with G418, on average): 35 passages
time of selective pressure needed to select resistant replicons ([17]; Huh 9-13 / Huh 5-2, stepwise increasing drug with G418, average (four independent experiments for DEB025)): 20 weeks
affinity to CypA compared with CsA [18]: superior to that of CsA to CypA
effect on WT replicon replication at a fixed concentration ([19]; 2.05 µM): completely inhibits WT replicon replication
EC50 ([19]; read-out: EC50, inhibition of HCV replicon RNA, WT Huh 9-13 culture, 72 h treatment, RT-qPCR, mean ± SD, at least three independent experiments, SD): 30 ± 10 nM

CNC(=O)c1c(-c2ccc(F)cc2)oc2cc(N(CCO)S(C)(=O)=O)c(C3CC3)cc12 [HCV796, reference compound]
sensitivity of the generated mutant replicons compared to WT [2]: retained WT-activity

CCC[C@H](NC(=O)[C@@H]1[C@H]2CCC[C@H]2CN1C(=O)[C@@H](NC(=O)[C@@H](NC(=O)c1cnccn1)C1CCCCC1)C(C)(C)C)C(=O)C(=O)NC1CC1 [VX-950]
antiviral activity against CsA^res replicons compared to WT [1]: retained WT-antiviral activity
sensitivity of the generated mutant replicons compared to WT [2]: retained WT-activity
antiviral activity against DEB025^res replicons compared to WT [3]: retained WT-antiviral activity
